Results taken from US20130096119A1, “Isoquinolin-3-Ylurea Derivatives” (priority 2010, published 2013).
Values after ≈ are worked out from the molar mass of the structure shown.

The compounds below were run on S. pneumoniae ATCC 49619 (assay: Minimal inhibitory concentration (MIC) by microdilution method (CLSI M7-A7)). Details: Streptococcus pneumoniae, ATCC49619, cation-adjusted Mueller-Hinton Broth supplemented with 3% (v/v) lysed horse blood.
Assay type: cell-based, Streptococcus pneumoniae
Protocol: Minimal inhibitory concentrations (MICs; mg/l) were determined in cation-adjusted Mueller-Hinton Broth (supplemented with 3% (v/v) lysed horse blood for testing Streptococcus pneumoniae) by a microdilution method following the description given in “Methods for Dilution Antimicrobial Susceptibility Tests for Bacteria that Grow Aerobically”, Approved standard, 7th ed., Clinical and Laboratory Standards Institute (CLSI) Document M7-A7, Wayne, Pa., USA, 2006.

Compound | MIC [µg/mL]
CCNC(=O)Nc1cc2cc(NC(=O)c3ccccc3)cc(C)c2cn1 [Example 106, N-[3-(3-ethyl-ureido)-8-methyl-isoquinolin-6-yl]-benzamide] | 0.125 (≈ 0.359 µM)
CCNC(=O)Nc1cc2cc(NCc3ccc4ccn(C)c4c3)cc(C)c2cn1.Cl [Example 135, 1-ethyl-3-{8-methyl-6-[((1-methyl-1H-indol-6-yl)methyl)-amino]-isoquinolin-3-yl}-urea hydrochloride] | 16
CCNC(=O)Nc1cc2c(-c3cccnc3)ccc(Oc3cccnc3)c2cn1 [Example 223, 1-ethyl-3-[5-pyridin-3-yl-8-(pyridin-3-yloxy)-isoquinolin-3-yl]-urea] | 0.5 (≈ 1.3 µM)
CCNC(=O)Nc1cc2cc(NC(=O)COC)cc(C)c2cn1 [Example 195, N-[3-(3-ethyl-ureido)-8-methyl-isoquinolin-6-yl]-2-methoxy-acetamide] | 4 (≈ 12.6 µM)
CCNC(=O)Nc1cc2cccc(Nc3cccc(OC)n3)c2cn1 [Example 178, 1-ethyl-3-[8-(6-methoxy-pyridin-2-ylamino)-isoquinolin-3-yl]-urea] | 2 (≈ 5.93 µM)
CCNC(=O)Nc1cc2cc(-c3cncc(F)c3)cc(C)c2cn1 [Example 102, 1-ethyl-3-[6-(5-fluoro-pyridin-3-yl)-8-methyl-isoquinolin-3-yl]-urea] | 2 (≈ 6.17 µM)
CCNC(=O)Nc1cc2cccc(CNc3ccnn3C)c2cn1.Cl [Example 303, 1-ethyl-3-{8-[(2-methyl-2H-pyrazol-3-ylamino)-methyl]-isoquinolin-3-yl}-urea hydrochloride] | 4
CCNC(=O)Nc1cc2c(-c3cc(C)nc(C)c3)ccc(Nc3cccnc3)c2cn1 [Example 231, 1-[5-(2,6-dimethyl-pyridin-4-yl)-8-(pyridin-3-ylamino)-isoquinolin-3-yl]-3-ethyl-urea] | 0.5 (≈ 1.21 µM)
CCNC(=O)Nc1cc2cc(-c3cnc4ccccc4c3)cc(C)c2cn1 [Example 36, 1-ethyl-3-(8-methyl-6-quinolin-3-yl-isoquinolin-3-yl)-urea] | 0.125 (≈ 0.351 µM)
CCNC(=O)Nc1cc2c(-c3cccc(NC(C)=O)c3)ccc(C)c2cn1 [Example 4, N-{3-[3-(3-ethyl-ureido)-8-methyl-isoquinolin-5-yl]-phenyl}-acetamide] | 8 (≈ 22.1 µM)
CCNC(=O)Nc1cc2cc(-c3cncc4ccccc34)cc(C)c2cn1 [Example 91, 1-ethyl-3-(8′-methyl-[4,6′]biisoquinolinyl-3′-yl)-urea] | 2 (≈ 5.61 µM)
CCNC(=O)Nc1cc2c(-c3cnn(C)c3)ccc(C)c2cn1.Cl [Example 284, 1-ethyl-3-[8-methyl-5-(1-methyl-1H-pyrazol-4-yl)-isoquinolin-3-yl]-urea hydrochloride] | 4
CCNC(=O)Nc1cc2c(F)ccc(NCc3cccnc3)c2cn1 [Example 55, 1-ethyl-3-{5-fluoro-8-[(pyridin-3-ylmethyl)-amino]-isoquinolin-3-yl}-urea] | 8 (≈ 23.6 µM)
CCNC(=O)Nc1cc2cccc(COc3ccc(C)nc3)c2cn1.Cl [Example 256, 1-ethyl-3-[8-(6-methyl-pyridin-3-yloxymethyl)-isoquinolin-3-yl]-urea hydrochloride] | 8
CCNC(=O)Nc1cc2cc(-c3cccnc3Cl)cc(C)c2cn1 [Example 82, 1-[6-(2-chloro-pyridin-3-yl)-8-methyl-isoquinolin-3-yl]-3-ethyl-urea] | 8 (≈ 23.5 µM)
CCNC(=O)Nc1cc2cccc(Nc3ccc(OC)c(C(N)=O)c3)c2cn1 [Example 242, 5-[3-(3-ethyl-ureido)-isoquinolin-8-ylamino]-2-methoxy-benzamide] | 0.5 (≈ 1.32 µM)
CCNC(=O)Nc1cc2cccc(CNc3cc(C)nn3C)c2cn1 [Example 191, 1-{8-[(2,5-dimethyl-2H-pyrazol-3-ylamino)-methyl]-isoquinolin-3-yl}-3-ethyl-urea] | 8 (≈ 23.6 µM)
CCNC(=O)Nc1cc2c(-c3cccc(CO)c3)ccc(C)c2cn1 [Example 12, 1-ethyl-3-[5-(3-hydroxymethyl-phenyl)-8-methyl-isoquinolin-3-yl]-urea] | 8 (≈ 23.9 µM)
CCNC(=O)Nc1cc2cc(-c3ccncc3F)cc(C)c2cn1 [Example 97, 1-ethyl-3-[6-(3-fluoro-pyridin-4-yl)-8-methyl-isoquinolin-3-yl]-urea] | 2 (≈ 6.17 µM)
CCNC(=O)Nc1cc2c(F)c(-c3ccc(S(N)(=O)=O)cc3)cc(Cl)c2cn1 [Example 111, 4-[8-chloro-3-(3-ethyl-ureido)-5-fluoro-isoquinolin-6-yl]-benzenesulfonamide] | 1 (≈ 2.36 µM)
CCNC(=O)Nc1cc2c(-c3cn[nH]c3)ccc(C)c2cn1.Cl [Example 281, 1-ethyl-3-[8-methyl-5-(1H-pyrazol-4-yl)-isoquinolin-3-yl]urea hydrochloride] | 0.5

Compound | MIC [µg/mL]
CCNC(=O)Nc1cc2c(-c3ccncc3)ccc(-c3ccncc3)c2cn1 [Example 72, 1-(5,8-di-pyridin-4-yl-isoquinolin-3-yl)-3-ethyl-urea] | 2 (≈ 5.41 µM)
CCNC(=O)Nc1cc2cc(-c3ccc(S(C)(=O)=O)cc3)cc(C)c2cn1 [Example 94, 1-ethyl-3-[6-(4-methanesulfonyl-phenyl)-8-methyl-isoquinolin-3-yl]-urea] | 0.25 (≈ 0.652 µM)
CCNC(=O)Nc1cc2cccc(Nc3cccc(S(N)(=O)=O)c3)c2cn1 [Example 171, 3-[3-(3-ethyl-ureido)-isoquinolin-8-ylamino]-benzenesulfonamide] | 2 (≈ 5.19 µM)
CCNC(=O)Nc1cc2c(-c3ccncn3)ccc(Nc3ccc(C)nc3)c2cn1 [Example 287, 1-ethyl-3-[8-(6-methyl-pyridin-3-ylamino)-5-pyrimidin-4-yl-isoquinolin-3-yl]-urea] | 0.25 (≈ 0.626 µM)
CCNC(=O)Nc1cc2cc(NC(=O)c3ccc(N(C)C)cc3)cc(C)c2cn1 [Example 121, 4-dimethylamino-N-[3-(3-ethyl-ureido)-8-methyl-isoquinolin-6-yl]-benzamide] | 0.25 (≈ 0.639 µM)
CCNC(=O)Nc1cc2cc(-c3cncc(S(C)(=O)=O)c3)cc(C)c2cn1 [Example 103, 1-ethyl-3-[6-(5-methanesulfonyl-pyridin-3-yl)-8-methyl-isoquinolin-3-yl]-urea] | 0.5 (≈ 1.3 µM)
CCNC(=O)Nc1cc2c(-c3ccc(CO)cc3)ccc(Nc3cccnc3)c2cn1 [Example 226, 1-ethyl-3-[5-(4-hydroxymethyl-phenyl)-8-(pyridin-3-ylamino)-isoquinolin-3-yl]-urea] | 1 (≈ 2.42 µM)
CCNC(=O)Nc1cc2cc(-c3ccc4ccccc4c3)cc(C)c2cn1 [Example 79, 1-ethyl-3-(8-methyl-6-naphthalen-2-yl-isoquinolin-3-yl)-urea] | 1 (≈ 2.81 µM)
CCNC(=O)Nc1cc2cc(-c3ccccc3NC(C)=O)cc(C)c2cn1 [Example 86, N-{2-[3-(3-ethyl-ureido)-8-methyl-isoquinolin-6-yl]-phenyl}-acetamide] | 16 (≈ 44.1 µM)
CCNC(=O)Nc1cc2c(-c3ccc(CO)cc3)ccc(Nc3cccc(C(=O)N(C)C)c3)c2cn1 [Example 251, 3-[3-(3-ethyl-ureido)-5-(4-hydroxymethyl-phenyl)-isoquinolin-8-ylamino]-N,N-dimethyl-benzamide] | 1 (≈ 2.07 µM)
CCNC(=O)Nc1cc2cc(-c3ccc(F)nc3)cc(C)c2cn1 [Example 99, 1-ethyl-3-[6-(6-fluoro-pyridin-3-yl)-8-methyl-isoquinolin-3-yl]-urea] | 2 (≈ 6.17 µM)
CCNC(=O)Nc1cc2c(F)c(-c3cccnc3)cc(C)c2cn1 [Example 47, 1-ethyl-3-(5-fluoro-8-methyl-6-pyridin-3-yl-isoquinolin-3-yl)-urea] | 2 (≈ 6.17 µM)
CCNC(=O)Nc1cc2cccc(Nc3ncccc3C)c2cn1.Cl [Example 167, 1-ethyl-3-[8-(3-methyl-pyridin-2-ylamino)-isoquinolin-3-yl]-urea hydrochloride] | 8
CCNC(=O)Nc1cc2cc(-c3cccnc3)cc(C)c2cn1 [Example 16, 1-ethyl-3-(8-methyl-6-pyridin-3-yl-isoquinolin-3-yl)-urea] | 2 (≈ 6.53 µM)
CCNC(=O)Nc1cc2cccc(Nc3ccncc3F)c2cn1.Cl [Example 157, 1-ethyl-3-[8-(3-fluoro-pyridin-4-ylamino)-isoquinolin-3-yl]-urea hydrochloride] | 2
Cc1ccc(-c2ccncc2)c2cc(NC(=O)NC3CC3)ncc12 [Example 139, 1-cyclopropyl-3-(8-methyl-5-pyridin-4-yl-isoquinolin-3-yl)-urea] | 4 (≈ 12.6 µM)
CCNC(=O)Nc1cc2c(CN3CCOCC3)ccc(Nc3cccc(OC)n3)c2cn1 [Example 275, 1-ethyl-3-{8-[(6-methoxy-pyridin-2-yl)amino]-5-(morpholin-4-ylmethyl)-isoquinolin-3-yl}-urea] | 4 (≈ 9.16 µM)
CCNC(=O)Nc1cc2c(-c3ccc(S(N)(=O)=O)cc3)ccc(C)c2cn1 [Example 35, 4-[3-(3-ethyl-ureido)-8-methyl-isoquinolin-5-yl]-benzenesulfonamide] | 0.5 (≈ 1.3 µM)
CCNC(=O)Nc1cc2cccc(Nc3ccc(C(=O)OC)c(C)c3)c2cn1 [Example 266, 4-[3-(3-ethyl-ureido)-isoquinolin-8-ylamino]-2-methyl-benzoic acid methyl ester] | 4 (≈ 10.6 µM)
CCNC(=O)Nc1cc2c(-c3ccnc(C)c3)ccc(Nc3cccc(C(=O)O)c3)c2cn1 [Example 246, 3-[3-(3-ethyl-ureido)-5-(2-methyl-pyridin-4-yl)-isoquinolin-8-ylamino]-benzoic acid] | 0.5 (≈ 1.13 µM)
CCNC(=O)Nc1cc2cccc(COc3ccccc3C(=O)OC)c2cn1.Cl [Example 258, 2-[3-(3-ethyl-ureido)-isoquinolin-8-ylmethoxy]-benzoic acid methyl ester hydrochloride] | 8

Same assay, conditions: cation-adjusted Mueller-Hinton Broth supplemented with 3% (v/v) lysed horse blood

Compound | MIC for S. pneumoniae ATCC 49619 [µg/mL]
1-ethyl-3-[8-(5-hydroxymethyl-imidazol-1-ylmethyl)-isoquinolin-3-yl]-urea and 1-ethyl-3-[8-(4-hydroxymethyl-imidazol-1-ylmethyl)-isoquinolin-3-yl]-urea [Example 293] | 4
N-{1-[3-(3-ethyl-ureido)-8-methyl-isoquinolin-6-yl]-phenyl}-acetamide [Example 18] | 0.25
